According to patent publication US20030022821A1, “Bioactive peptides” (priority 1998, published 2003):
Values after ≈ are worked out from the molar mass of the structure shown. Like-named read-outs stand apart in the source and are kept apart here. Ends that are not written are not given here. Peptide text beside a SMILES is read from it. * marks the point of attachment. Fmoc = O=C(OCC1c2ccccc2-c2ccccc21)*; Acm = CC(=O)NC*

Assays:
[1] = tested on: Staphylococcus aureus ATCC 25923; type: cell-based
Outline: (§1)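 Bacteria in mid-log phase, grown in 2% Bacto Peptone water, were tested by standard microdilution in 1% Bacto Peptone water at an inoculum of 2×10^6 CFU/ml. Runs were in triplicate, and peptide concentration in the wells was checked by HPLC.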

[2] = tested on: Escherichia coli ATCC 25922; type: cell-based
Outline: as §1

normal fibroblasts = type: cell-based
human red blood cells = assay: Hemolytic assay; type: cell-based; conditions: red cells of human
[3] = tested on: Meth A cells (murine sarcoma cell line); assay: Cytotoxicity on Meth A cells, MTT method
Protocol: Peptide solutions (0.1 ml) were added and the plates incubated at 37° C. for 30 minutes, 4 hours or 24 hours. The cytotoxicity was measured using the MTT method (Mosmann et al., J. Immunol. (1986) 136, 2348-2357).
Cells in the growth phase were harvested and washed in fresh medium and injected subcutaneously into the abdominal region of the mice.
The cytotoxic effect of the peptides on different murine and human tumor cells were measured using the MTT method (Mosmann et al., J. Immunol. (1986) 136, 2348-2357). MTT is a soluble tetrazolium salt yielding a yellow solution when prepared in media or salt solutions lacking phenol red. Dissolved MTT is converted to an insoluble purple formazan by cleavage of the tetrazolium ring by dehydrogenase enzymes. This water insoluble formazan can be solubilized using isopropanol or other solvents and the dissolved material is measured spectrophotometrically. The absorbance was measured as a function of concentration of converted dye.
Cells were maintained in […] medium containing 10% FBS, 1% L-glutamine and 0.1% penicillin and streptomycin. Cells to be used in the assay were grown to confluency, trypsinated and split to single cell suspension, counted and centrifuged at 1500 rpm for 10 min. […][…] of cell suspension was transferred to each well on a 96-well microtiter plate. The cells were stimulated by adding […] of various concentrations of peptides diluted with assay medium to each well. The final concentrations of peptide were for example: 5, 10, 20, 40, 60, 80, 100, and 200 mg/ml. […] As a negative control only medium was added to the cells, and as a positive control (100% killing) 1% triton X-100 was added. Following an incubation period of 4 h., 20 ml MTT dissolved in PBS at a concentration of 5 mg/ml was added to each well, and the plate was incubated further for 2 h. 130 ml of the supernatant were then removed and […] acid alcohol (0.04-0.1 N HCl in isopropanol) added to each well to dissolve the dark blue crystals. The plate was placed on a shaker for 1 h and read spectrophotometrically at 590 nm in a microtiterplate reader using the Softmaxâ program.

[4] = read-out: MethA IC 50, Table 7, peptide required to kill 50% of MethA cells

Compound	Mic S. Aureus ([1]; ATCC 25923) [µM]	Mic E-coli ([2]; ATCC 25922) [µM]	IC50 (normal fibroblasts) [µM]	EC50 (human red blood cells) [µM]	IC50 ([3]; 4 h) [µM]	other results
PAIRKAFRIAIRMLKKAA-OH	10	2.5	280	> 487	47	–
PAARKAFRWAWRMLKKAA-OH [LFB 14-31A2,3,6, 10, 17F7K16L14R4]	10	15	190	> 463	24.1	–
PAWRKAFRIAIRMLKKAA-OH [LFB 14-31A2,6, 10, 17F7I9, 11K16L14R4]	–	–	26	–	22	–
PAWRKAFRWAARMLKKAA-OH [LFB 14-31A2,6, 10, 11, 17F7K16L14R4]	>2.5	10	46.3	278	11.1	–
PAWRKAFRIAWRMLKKAA-OH [LFB 14-31A2,6, 10, 17F7I9K16L14R4]	<1	5	26	–	12	–
PAWRKAFRAAWRMLKKAA-OH [LFB 14-31A2,6,9, 10, 17F7K16L14R4]	5	10	46.3	382	16.2	–
PAWRKAFRKAWRMLKKAA-OH [LFB 14-31A2,6, 10, 17F7K9, 16L14R4]	10	30	58.7	> 451	13.5	–
PAIRKAFRWAWRMLKKAA-OH [LFB 14-31A2,6, 10, 17F7I3K16L14R4]	–	–	20	323	9	Mic S. Aureus ([1]; Table 17): 2/4; Mic E-coli ([2]; Table 17): 2/4
CSCC[C@H](NC(=O)[C@H](CCCNC(=N)N)NC(=O)[C@H](C)NC(=O)[C@H](CCC(N)=O)NC(=O)[C@H](Cc1c[nH]c2ccccc12)NC(=O)[C@H](CCCNC(=N)N)NC(=O)[C@H](CCCNC(=N)N)NC(=O)[C@H](CSCNC(C)=O)NC(=O)[C@H](CCCCN)NC(=O)[C@H](Cc1ccccc1)NC(=O)OCC1c2ccccc2-c2ccccc21)C(=O)N[C@@H](CCCCN)C(=O)N[C@@H](CCCCN)C(=O)N[C@@H](CC(C)C)C(=O)NCC(=O)N[C@@H](C)C(=O)O [LFB A8 FMOC] (Fmoc-FKC(Acm)RRWQARMKKLGA-OH)	–	–	–	–	–	MIC S. aureus ([1]; ATCC 25923): 10 µg/mL (≈ 4.6 µM); MIC E. coli ([2]; ATCC 25922): 60 µg/mL (≈ 27.6 µM); % Hemolysis 10 μg/ml (human red blood cells): 2.87%; % Hemolysis 100 μg/ml (human red blood cells): 7.79%; killing of Meth A cells ([3]; 250 μg/ml at ½ hour and 4 hours): killed most of the cells
PAWRKAFRWAIRMLKKAA-OH [LFB 14-31A2,6, 10, 17F7I11K16L14R4]	<1	–	15	–	6	Mic E-coli ([2]; Table 17): 2/5
PAIRKAFRWAIRMLKKAA-OH [LFB 14-31A2,6, 10, 17F7I3, 11K16L14R4]	5	2.5	45	413	16	–
PAWRKAFRWAKRMLKKAA-OH [LFB 14-31A2,6, 10, 17F7K11, 16L14R4]	<2.5	5	30.7	> 451	7.9	–
PAWFKAFRWAWRMLKKAA-OH [LFB 14-31 A2,6, 10, 17F7K16L14]	–	–	–	> 440	–	MIC S. aureus ([1]; ATCC 25923): 10 µg/mL; MIC E. coli ([2]; ATCC 25922): 10 µg/mL; IC50 [3, 4]: 28.1 µM
CSCC[C@H](NC(=O)[C@H](CCCNC(=N)N)NC(=O)[C@H](Cc1c(S(=O)(=O)c2c(C)c(C)c3c(c2C)CCC(C)(C)O3)[nH]c2ccccc12)NC(=O)[C@H](CCC(N)=O)NC(=O)[C@H](Cc1c[nH]c2ccccc12)NC(=O)[C@H](CCCNC(=N)N)NC(=O)[C@H](CCCNC(=N)N)NC(=O)[C@H](CSCNC(C)=O)NC(=O)[C@H](CCCCN)NC(=O)[C@@H](N)Cc1ccccc1)C(=O)N[C@@H](CCCCN)C(=O)N[C@@H](CCCCN)C(=O)N[C@@H](CC(C)C)C(=O)NCC(=O)N[C@@H](C)C(=O)O [LFB PMC8]	–	–	–	–	–	MIC S. aureus ([1]; ATCC 25923): 10 µg/mL (≈ 4.29 µM); MIC E. coli ([2]; ATCC 25922): 18 µg/mL (≈ 7.72 µM); % Hemolysis 10 μg/ml (human red blood cells): 3.6%; % Hemolysis 100 μg/ml (human red blood cells): 9.79%; MethA IC50 ([3]; 4 h): 150 µg/mL
CC(=O)NCSC[C@H](NC(=O)[C@H](CCCCN)NC(=O)[C@@H](N)Cc1ccccc1)C(=O)N[C@@H](Cc1c[nH]c2ccccc12)C(=O)N[C@@H](CCCNC(=N)N)C(=O)N[C@@H](Cc1c[nH]c2ccccc12)C(=O)N[C@@H](CCC(N)=O)C(=O)N[C@@H](Cc1c[nH]c2ccccc12)C(=O)N[C@@H](CCCNC(=N)N)C(=O)N[C@@H](Cc1c[nH]c2ccccc12)C(=O)N[C@@H](CCCCN)C(=O)N[C@@H](CCCCN)C(=O)N[C@@H](CC(C)C)C(=O)NCC(=O)N[C@@H](C)C(=O)O [LFB W4, 10, H2N-Phe-Lys-Cys-Trp-Arg-Trp-Gln-Trp-Arg-Trp-Lys-Lys-Leu-Gly-Ala-COOH] (H-FKC(Acm)WRWQWRWKKLGA-OH)	–	–	–	–	–	MIC S. aureus ([1]; ATCC 25923): 10 µg/mL (≈ 4.65 µM); MIC S. aureus ([1]; Table 6, unit assumed): 10 µg/mL (≈ 4.65 µM); MIC E. coli ([2]; ATCC 25922): 5 µg/mL (≈ 2.32 µM); MIC E. coli ([2]; Table 6): 5 µg/mL (≈ 2.32 µM); % Hemolysis 10 μg/ml (human red blood cells): 4.45%; % Hemolysis 100 μg/ml (human red blood cells): 27.8%; Meth A IC50 ([3]; 4 h): 500 µg/mL
PAWRKAFRWAWRMLKKAA-OH [LFB 14-31A2,6, 10, 17F7K16L14R4]	2	–	17	110	6.6	Mic E-coli ([2]; Table 17): 2/4
PAIRKAFRIAWRMLKKAA-OH [LFB 14-31A2,6, 10, 17F7I3, 9K16L14R4]	5	5	108	> 470	36	–
PAWRKAFRKAKRMLKKAA-OH [LFB 14-31A2,6, 10, 17F7K9, 11, 16L14R4]	–	–	> 463	> 463	> 300	–
PAWRKARRWAWRMKKLAA-OH [LFB 14-31 A2,6, 10, 17R4]	–	–	–	> 438	–	MIC S. aureus ([1]; ATCC 25923): 20 µg/mL; MIC E. coli ([2]; ATCC 25922): 30 µg/mL; IC50 [3, 4]: 75.8 µM
CSCC[C@H](NC(=O)[C@H](CCCNC(=N)N)NC(=O)[C@H](C)NC(=O)[C@H](CCC(N)=O)NC(=O)[C@H](Cc1c[nH]c2ccccc12)NC(=O)[C@H](CCCNC(=N)N)NC(=O)[C@H](CCCNC(=N)N)NC(=O)[C@H](CSCNC(C)=O)NC(=O)[C@H](CCCCN)NC(=O)[C@@H](N)Cc1ccccc1)C(=O)N[C@@H](CCCCN)C(=O)N[C@@H](CCCCN)C(=O)N[C@@H](CC(C)C)C(=O)NCC(=O)N[C@@H](C)C(=O)O [LFB A8] (H-FKC(Acm)RRWQARMKKLGA-OH; N-terminus assumed)	–	–	–	–	–	MIC S. aureus ([1]; ATCC 25923): >200 µg/mL; MIC E. coli ([2]; ATCC 25922): >200 µg/mL; % Hemolysis 10 μg/ml (human red blood cells): 2.8%; % Hemolysis 100 μg/ml (human red blood cells): 3.45%; MethA IC50 ([3]; 4 h): 500 µg/mL
PAWRKAARWAWRMLKKAA-OH [LFB 14-31A2,6, 10, 17F7K16L14R4 F7 → A7]	10	15	289	> 455	34.6	–
PAKRKAFRWAWRMLKKAA-OH [LFB 14-31A2,6, 10, 17F7K3, 16L14R4]	–	–	230	> 451	230	–
PAWRKAFRAAARMLKKAA-OH [LFB 14-31A2,6,9, 10, 11, 17F7K16L14R4]	30	30	> 489	> 489	110	–
